Source: patent publication US12134620B2 (ARAXES PHARMA LLC, priority 2018, dated 2024)

These compounds were tested against T1, KRAS G12C 1-169, his-tagged protein, GDP-loaded (Homo sapiens, UniProt P01116, G12C) (assay: Biochemical assay: covalent modification of KRAS G12C, analysed by mass spectrometry (RapidFire/TOF or Q-Exactive)). Conditions: Modification activity, modification percentage from MS peak intensities.
T1 construct: KRAS G12C 1-169, his-tagged protein, GDP-loaded; His tag
Format: binding
Summary of the method: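 GDP-loaded His-tagged KRAS G12C 1-169 (2 μM or 0.5 μM in 20 mM Hepes, 150 mM NaCl, 1 mM MgCl2) reacted with compound at 32 μM or 8 μM final (2% DMSO) for a set time, then quenched with formic acid. Percent covalent modification from deconvoluted intact-protein MS peak intensities (RapidFire/TOF or LC-Q Exactive).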
Note: time not given here.

Question: `C=CC(=O)N1CC2(CCN(c3nc(OC[C@@H]4COCCN4C)nc(-c4c(C)ccc5[nH]ncc45)c3C#N)C2)C1` [Compound I-117, 4-(2-acryloyl-2,6-diazaspiro[3.4]octan-6-yl)-6-(5-methyl-1H-indazol-4-yl)-2-(((S)-4-methylmorpholin-3-yl)methoxy)pyrimidine-5-carbonitrile] was tested. Which Binding % did it give?
Answer: ++ (++ indicates binding activity from 50 to 85%)

Question: `C=CC(=O)N1CC2(CCN(c3nc(-c4c(C)ccc5[nH]ncc45)cc(N4CCOCC4)n3)C2)C1` [Compound I-144, 1-(6-(4-(5-methyl-1H-indazol-4-yl)-6-morpholinopyrimidin-2-yl)-2,6-diazaspiro[3.4]octan-2-yl)prop-2-en-1-one] was tested. Which Binding % did it give?
Answer: + (+ indicates binding activity greater than 0% and up to 50%)

Question: With `C=CC(=O)N1CC2(CCN(c3nc(C(N)=O)nc(-c4c(C)ccc5[nH]ncc45)c3C#N)C2)C1` [Compound I-202, 4-(2-acryloyl-2,6-diazaspiro[3.4]octan-6-yl)-5-cyano-6-(5-methyl-1H-indazol-4-yl)pyrimidine-2-carboxamide] as the compound, how does the Binding % read?
Answer: + (+ indicates binding activity greater than 0% and up to 50%)

Question: With `Cc1ccc2[nH]ncc2c1-c1nc(OC[C@@H]2CCCN2C)nc(N2CCC3(CN(C(=O)/C=C/CN(C)C)C3)C2)c1C#N` [Compound I-204, 4-(2-((E)-4-(dimethylamino)but-2-enoyl)-2,6-diazaspiro[3.4]octan-6-yl)-6-(5-methyl-1H-indazol-4-yl)-2-(((S)-1-methylpyrrolidin-2-yl)methoxy)pyrimidine-5-carbonitrile] as the compound, how does the Binding % read?
Answer: + (+ indicates binding activity greater than 0% and up to 50%)

Question: `C=CC(=O)N1CC2(CCN(c3nc(N4CCC5CCN(C)C5C4)nc(-c4c(C)ccc5[nH]ncc45)c3C#N)C2)C1` (stereo not shown) [Compound I-40, 4-(2-acryloyl-2,6-diazaspiro[3.4]octan-6-yl)-6-(5-methyl-1H-indazol-4-yl)-2-(1-methyloctahydro-6H-pyrrolo[2,3-c]pyridin-6-yl)pyrimidine-5-carbonitrile] was tested. Which Binding % did it give?
Answer: +++ (+++ indicates binding activity greater than 85%)

Question: Which Binding % does the source give for `C=CC(=O)N1CC2(CCN(c3ncnc(-c4c(C)ccc5[nH]ncc45)c3CO)C2)C1` [Compound I-251, 1-(6-(5-(hydroxymethyl)-6-(5-methyl-1H-indazol-4-yl)pyrimidin-4-yl)-2,6-diazaspiro[3.4]octan-2-yl)prop-2-en-1-one] here?
Answer: + (+ indicates binding activity greater than 0% and up to 50%)

Question: `C=CC(=O)N1CC2(CCN(c3cnc(Oc4ccccc4)c(-c4c(C)ccc5[nH]ncc45)c3C#N)C2)C1` [Compound I-214, 5-(2-acryloyl-2,6-diazaspiro[3.4]octan-6-yl)-3-(5-methyl-1H-indazol-4-yl)-2-phenoxyisonicotinoni-trile] was tested. Which Binding % did it give?
Answer: ++ (++ indicates binding activity from 50 to 85%)

Question: For `C=CC(=O)N1CC2(CCN(c3ncnc(-c4c(C)ccc5[nH]ncc45)c3CC#N)C2)C1` [Compound I-241, 2-(4-(2-acryloyl-2,6-diazaspiro[3.4]octan-6-yl)-6-(5-methyl-1H-indazol-4-yl)pyrimidin-5-yl)acetonitrile], which Binding % is on record?
Answer: + (+ indicates binding activity greater than 0% and up to 50%)

Question: How did the Binding % turn out when `C=CC(=O)N1CC2(CCN(c3c(C#N)c(-c4c(C)ccc5[nH]ncc45)[nH]c(=O)[n+]3Cc3ccccc3)C2)C1` [Compound I-179, 6-(2-acryloyl-2,6-diazaspiro[3.4]octan-6-yl)-1-benzyl-4-(5-methyl-1H-indazol-4-yl)-2-oxo-2H-1l4,3l2-pyrimidine-5-carbonitrile] was run?
Answer: + (+ indicates binding activity greater than 0% and up to 50%)

Question: With `C=CC(=O)N1CC2(CCN(c3nc(C4CCN(C)CC4)nc(-c4c(C)ccc5[nH]ncc45)c3C#N)C2)C1` [Compound I-180, 4-(2-acryloyl-2,6-diazaspiro[3.4]octan-6-yl)-6-(5-methyl-1H-indazol-4-yl)-2-(1-methylpiperidin-4-yl)pyrimidine-5-carbonitrile] as the compound, how does the Binding % read?
Answer: ++ (++ indicates binding activity from 50 to 85%)

Question: Which Binding % does the source give for `C=CC(=O)N1CC2(CCN(c3cc(-c4c(C)ccc5[nH]ncc45)ncn3)C2)C1` [Compound I-229, 1-(6-(6-(5-methyl-1H-indazol-4-yl)pyrimidin-4-yl)-2,6-diazaspiro[3.4]octan-2-yl)prop-2-en-1-one] here?
Answer: + (+ indicates binding activity greater than 0% and up to 50%)

Question: For `C=CC(=O)N1CC2(CCN(c3ncnc(-c4c(C)ccc5[nH]nc(C6CC6)c45)c3C#N)C2)C1` [Compound I-238, 4-(2-acryloyl-2,6-diazaspiro[3.4]octan-6-yl)-6-(3-cyclopropyl-5-methyl-1H-indazol-4-yl)pyrimidine-5-carbonitrile], which Binding % is on record?
Answer: + (+ indicates binding activity greater than 0% and up to 50%)

Question: Which Binding % does the source give for `C=CC(=O)N1CC2(CCN(c3nc(N4CC5CCN(C)CC5C4)nc(-c4c(C)ccc5[nH]ncc45)c3C#N)C2)C1` (stereo not shown) [Compound I-46, 4-(2-acryloyl-2,6-diazaspiro[3.4]octan-6-yl)-6-(5-methyl-1H-indazol-4-yl)-2-(5-methyloctahydro-2H-pyrrolo[3,4-c]pyridin-2-yl)pyrimidine-5-carbonitrile] here?
Answer: +++ (+++ indicates binding activity greater than 85%)

Question: How did the Binding % turn out when `C=CC(=O)N1CC2(CCN(c3nc(OC[C@@H]4CCCN4C)cc(-c4c(C)ccc5[nH]ncc45)n3)C2)C1` [Compound I-148, (S)-1-(6-(4-(5-methyl-1H-indazol-4-yl)-6-((1-methylpyrrolidin-2-yl)methoxy)pyrimidin-2-yl)-2,6-diazaspiro[3.4]octan-2-yl)prop-2-en-1-one] was run?
Answer: + (+ indicates binding activity greater than 0% and up to 50%)

Question: With `C=CC(=O)N1CC2(CCN(c3nc(OC[C@@H]4CN(C)CCO4)nc(-c4c(C)ccc5[nH]ncc45)c3C#N)C2)C1` [Compound I-91, 4-(2-acryloyl-2,6-diazaspiro[3.4]octan-6-yl)-6-(5-methyl-1H-indazol-4-yl)-2-(((S)-4-methylmorpholin-2-yl)methoxy)pyrimidine-5-carbonitrile] as the compound, how does the Binding % read?
Answer: ++ (++ indicates binding activity from 50 to 85%)

Question: Which Binding % does the source give for `C=CC(=O)N1CC2(CCN(c3nc(N4CCOCC4)nc(-c4c(C)ccc5c4cnn5C)c3C#N)C2)C1` [Compound I-79, 4-(2-acryloyl-2,6-diazaspiro[3.4]octan-6-yl)-6-(1,5-dimethyl-1H-indazol-4-yl)-2-morpholinopyrimidine-5-carbonitrile] here?
Answer: + (+ indicates binding activity greater than 0% and up to 50%)

Question: Which Binding % does the source give for `C=CC(=O)N1CC2(CCN(c3nc(OCc4cccnc4)nc(-c4c(C)ccc5[nH]ncc45)c3C#N)C2)C1` [Compound I-150, 4-(2-acryloyl-2,6-diazaspiro[3.4]octan-6-yl)-6-(5-methyl-1H-indazol-4-yl)-2-(pyridin-3-ylmethoxy)pyrimidine-5-carbonitrile] here?
Answer: ++ (++ indicates binding activity from 50 to 85%)

Question: For `C=CC(=O)N1CC2(CCN(c3ncnc(-c4c(C)ccc5cn[nH]c45)c3C#N)C2)C1` [Compound I-227, 4-(2-acryloyl-2,6-diazaspiro[3.4]octan-6-yl)-6-(6-methyl-1H-indazol-7-yl)pyrimidine-5-carbonitrile], which Binding % is on record?
Answer: + (+ indicates binding activity greater than 0% and up to 50%)

Question: How did the Binding % turn out when `C/C=C/C(=O)N1CC2(CCN(c3nc(N4CCOCC4)nc(-c4c(C)ccc5[nH]ncc45)c3C#N)C2)C1` [Compound I-83, (E)-4-(2-(but-2-enoyl)-2,6-diazaspiro[3.4]octan-6-yl)-6-(5-methyl-1H-indazol-4-yl)-2-morpholinopyrimidine-5-carbonitrile] was run?
Answer: + (+ indicates binding activity greater than 0% and up to 50%)
